Target: recombinant CD73 (Homo sapiens (Human), UniProt P21589)
Test: Inhibition of soluble recombinant CD73 enzyme activity (Malachite Green)
Type: biochemical
Conditions: recombinant CD73 0.5 nM, AMP 50 μM, 30 minutes at room temperature
Method: The concentration of inorganic phosphate was determined using a phosphate standard curve.

Sequence of recombinant CD73 (P21589 27-547): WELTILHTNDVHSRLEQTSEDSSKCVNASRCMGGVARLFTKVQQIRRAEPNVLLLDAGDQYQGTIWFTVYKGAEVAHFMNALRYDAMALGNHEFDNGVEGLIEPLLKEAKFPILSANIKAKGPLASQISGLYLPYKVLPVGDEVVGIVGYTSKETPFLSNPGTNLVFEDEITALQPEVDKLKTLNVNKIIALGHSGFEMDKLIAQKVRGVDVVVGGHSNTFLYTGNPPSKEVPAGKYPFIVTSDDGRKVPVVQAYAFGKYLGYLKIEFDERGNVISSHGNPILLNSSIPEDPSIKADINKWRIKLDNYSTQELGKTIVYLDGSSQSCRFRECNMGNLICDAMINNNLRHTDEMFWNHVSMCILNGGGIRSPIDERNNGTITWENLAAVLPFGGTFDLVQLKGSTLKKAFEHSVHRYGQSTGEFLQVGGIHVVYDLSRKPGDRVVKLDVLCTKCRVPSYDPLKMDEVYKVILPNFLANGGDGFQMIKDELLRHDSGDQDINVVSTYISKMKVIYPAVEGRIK

IC50: > 50 µM
SMILES: Nc1ncnc2c1ncn2[C@@H]1O[C@H](COC(C(=O)O)C(=O)O)[C@@H](O)C1F (stereo in doubt) [compound 9, 2-(((2R,3R,4R,5R)-5-(6-amino-9H-purin-9-yl)-4-fluoro-3-hydroxytetrahydrofuran-2-yl)-methoxy)malonic acid]

Source: patent US11208414B2, “Ectonucleotidase inhibitors and methods of use thereof” (Calithera Biosciences, Inc., priority 2016, dated 2021)
